Experiments:
Test in all cases: relative viability (nuclei count vs DMSO), 5 days (fraction); higher = more cells survive
Bosutinib + Pemetrexed = compound: COc1cc(Nc2c(C#N)cnc3cc(OCCCN4CCN(C)CC4)c(OC)cc23)c(Cl)cc1Cl [Bosutinib] + Nc1nc2[nH]cc(CCc3ccc(C(=O)N[C@@H](CCC(=O)O)C(=O)O)cc3)c2c(=O)[nH]1 [Pemetrexed] (partner 0.2 µM)
Procedure, shortened: (§1)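 Medians of duplicate plates are given as relative viability. That measure is the nuclei count in treated wells divided by the count in vehicle wells. Counts were taken on 4× images of lung cancer cell lines in 1536-well plates, 5 days after pin-tool dosing the day after seeding with one drug alone or a fixed anchor-drug dose plus five library-drug doses (not always all listed) in √10 steps.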

Bosutinib + OSI-027 = compound: COc1cc(Nc2c(C#N)cnc3cc(OCCCN4CCN(C)CC4)c(OC)cc23)c(Cl)cc1Cl [Bosutinib] + COc1cccc2cc(-c3nc([C@H]4CC[C@H](C(=O)O)CC4)n4ncnc(N)c34)[nH]c12 [OSI-027] (partner 0.5 µM)
Procedure, shortened: as §1

Bosutinib + Bortezomib = compound: COc1cc(Nc2c(C#N)cnc3cc(OCCCN4CCN(C)CC4)c(OC)cc23)c(Cl)cc1Cl [Bosutinib] + CC(C)C[C@H](NC(=O)[C@H](Cc1ccccc1)NC(=O)c1cnccn1)B(O)O [Bortezomib] (partner 0.002 µM)
Procedure, shortened: as §1

Bosutinib + Decitabine = compound: COc1cc(Nc2c(C#N)cnc3cc(OCCCN4CCN(C)CC4)c(OC)cc23)c(Cl)cc1Cl [Bosutinib] + Nc1ncn([C@H]2C[C@H](O)[C@@H](CO)O2)c(=O)n1 [Decitabine] (partner 2 µM)
Procedure, shortened: as §1

Bosutinib + Crizotinib = compound: COc1cc(Nc2c(C#N)cnc3cc(OCCCN4CCN(C)CC4)c(OC)cc23)c(Cl)cc1Cl [Bosutinib] + C[C@@H](Oc1cc(-c2cnn(C3CCNCC3)c2)cnc1N)c1c(Cl)ccc(F)c1Cl [Crizotinib] (partner 1 µM)
Procedure, shortened: as §1

NCI-H596
relative viability (Bosutinib + Pemetrexed; first compound 0.01 µM): 0.576 | relative viability (Bosutinib + Pemetrexed; first compound 0.03162 µM): 0.464 | relative viability (Bosutinib + Pemetrexed; first compound 0.1 µM): 0.503 | relative viability (Bosutinib + Pemetrexed; first compound 1 µM): 0.505 | relative viability (Bosutinib + OSI-027; first compound 0.01 µM): 0.743 | relative viability (Bosutinib + OSI-027; first compound 0.03162 µM): 0.738 | relative viability (Bosutinib + OSI-027; first compound 0.1 µM): 0.639 | relative viability (Bosutinib + OSI-027; first compound 1 µM): 0.496 | relative viability (Bosutinib + Bortezomib; first compound 0.01 µM): 1 | relative viability (Bosutinib + Bortezomib; first compound 0.03162 µM): 0.967 | relative viability (Bosutinib + Bortezomib; first compound 0.1 µM): 1.11 | relative viability (Bosutinib + Bortezomib; first compound 1 µM): 1.02 | relative viability (Bosutinib + Decitabine; first compound 0.01 µM): 1.03 | relative viability (Bosutinib + Decitabine; first compound 0.03162 µM): 1.07 | relative viability (Bosutinib + Decitabine; first compound 0.1 µM): 1.05 | relative viability (Bosutinib + Decitabine; first compound 1 µM): 0.876 | relative viability (Bosutinib + Crizotinib; first compound 0.01 µM): 0.923 | relative viability (Bosutinib + Crizotinib; first compound 0.03162 µM): 0.884 | relative viability (Bosutinib + Crizotinib; first compound 0.1 µM): 0.989 | relative viability (Bosutinib + Crizotinib; first compound 1 µM): 0.743

NCI-H647
relative viability (Bosutinib + Pemetrexed; first compound 0.01 µM): 0.221 | relative viability (Bosutinib + Pemetrexed; first compound 0.03162 µM): 0.179 | relative viability (Bosutinib + Pemetrexed; first compound 0.1 µM): 0.162 | relative viability (Bosutinib + Pemetrexed; first compound 1 µM): 0.171 | relative viability (Bosutinib + OSI-027; first compound 0.01 µM): 0.661 | relative viability (Bosutinib + OSI-027; first compound 0.03162 µM): 0.741 | relative viability (Bosutinib + OSI-027; first compound 0.1 µM): 0.724 | relative viability (Bosutinib + OSI-027; first compound 1 µM): 0.496 | relative viability (Bosutinib + Bortezomib; first compound 0.01 µM): 1.06 | relative viability (Bosutinib + Bortezomib; first compound 0.03162 µM): 1.06 | relative viability (Bosutinib + Bortezomib; first compound 0.1 µM): 0.919 | relative viability (Bosutinib + Bortezomib; first compound 1 µM): 0.405 | relative viability (Bosutinib + Decitabine; first compound 0.01 µM): 0.442 | relative viability (Bosutinib + Decitabine; first compound 0.03162 µM): 0.36 | relative viability (Bosutinib + Decitabine; first compound 0.1 µM): 0.302 | relative viability (Bosutinib + Decitabine; first compound 1 µM): 0.386 | relative viability (Bosutinib + Crizotinib; first compound 0.01 µM): 1.03 | relative viability (Bosutinib + Crizotinib; first compound 0.03162 µM): 1.23 | relative viability (Bosutinib + Crizotinib; first compound 0.1 µM): 1.07 | relative viability (Bosutinib + Crizotinib; first compound 1 µM): 0.687

NCI-H650
relative viability (Bosutinib + Pemetrexed; first compound 0.01 µM): 0.893 | relative viability (Bosutinib + Pemetrexed; first compound 0.03162 µM): 0.846 | relative viability (Bosutinib + Pemetrexed; first compound 0.1 µM): 0.972 | relative viability (Bosutinib + Pemetrexed; first compound 1 µM): 0.953 | relative viability (Bosutinib + OSI-027; first compound 0.01 µM): 0.634 | relative viability (Bosutinib + OSI-027; first compound 0.03162 µM): 0.502 | relative viability (Bosutinib + OSI-027; first compound 0.1 µM): 0.588 | relative viability (Bosutinib + OSI-027; first compound 1 µM): 0.628 | relative viability (Bosutinib + Bortezomib; first compound 0.01 µM): 0.875 | relative viability (Bosutinib + Bortezomib; first compound 0.03162 µM): 0.854 | relative viability (Bosutinib + Bortezomib; first compound 0.1 µM): 0.858 | relative viability (Bosutinib + Bortezomib; first compound 1 µM): 0.962 | relative viability (Bosutinib + Decitabine; first compound 0.01 µM): 0.327 | relative viability (Bosutinib + Decitabine; first compound 0.03162 µM): 0.295 | relative viability (Bosutinib + Decitabine; first compound 0.1 µM): 0.29 | relative viability (Bosutinib + Decitabine; first compound 1 µM): 0.419 | relative viability (Bosutinib + Crizotinib; first compound 0.01 µM): 0.791 | relative viability (Bosutinib + Crizotinib; first compound 0.03162 µM): 0.644 | relative viability (Bosutinib + Crizotinib; first compound 0.1 µM): 0.73 | relative viability (Bosutinib + Crizotinib; first compound 1 µM): 0.808

NCI-H661
relative viability (Bosutinib + Pemetrexed; first compound 0.01 µM): 0.919 | relative viability (Bosutinib + Pemetrexed; first compound 0.03162 µM): 0.908 | relative viability (Bosutinib + Pemetrexed; first compound 0.1 µM): 0.952 | relative viability (Bosutinib + Pemetrexed; first compound 1 µM): 0.741 | relative viability (Bosutinib + OSI-027; first compound 0.01 µM): 0.682 | relative viability (Bosutinib + OSI-027; first compound 0.03162 µM): 0.804 | relative viability (Bosutinib + OSI-027; first compound 0.1 µM): 0.744 | relative viability (Bosutinib + OSI-027; first compound 1 µM): 0.56 | relative viability (Bosutinib + Bortezomib; first compound 0.01 µM): 1.05 | relative viability (Bosutinib + Bortezomib; first compound 0.03162 µM): 0.802 | relative viability (Bosutinib + Bortezomib; first compound 0.1 µM): 0.733 | relative viability (Bosutinib + Bortezomib; first compound 1 µM): 0.446 | relative viability (Bosutinib + Decitabine; first compound 0.01 µM): 0.57 | relative viability (Bosutinib + Decitabine; first compound 0.03162 µM): 0.537 | relative viability (Bosutinib + Decitabine; first compound 0.1 µM): 0.521 | relative viability (Bosutinib + Decitabine; first compound 1 µM): 0.426 | relative viability (Bosutinib + Crizotinib; first compound 0.03162 µM): 1.06 | relative viability (Bosutinib + Crizotinib; first compound 0.1 µM): 0.989 | relative viability (Bosutinib + Crizotinib; first compound 1 µM): 0.633

NCI-H838
relative viability (Bosutinib + Pemetrexed; first compound 0.01 µM): 0.268 | relative viability (Bosutinib + Pemetrexed; first compound 0.03162 µM): 0.229 | relative viability (Bosutinib + Pemetrexed; first compound 0.1 µM): 0.246 | relative viability (Bosutinib + Pemetrexed; first compound 1 µM): 0.253 | relative viability (Bosutinib + OSI-027; first compound 0.01 µM): 0.43 | relative viability (Bosutinib + OSI-027; first compound 0.03162 µM): 0.45 | relative viability (Bosutinib + OSI-027; first compound 0.1 µM): 0.361 | relative viability (Bosutinib + OSI-027; first compound 1 µM): 0.317 | relative viability (Bosutinib + Bortezomib; first compound 0.01 µM): 0.97 | relative viability (Bosutinib + Bortezomib; first compound 0.03162 µM): 0.794 | relative viability (Bosutinib + Bortezomib; first compound 0.1 µM): 0.78 | relative viability (Bosutinib + Bortezomib; first compound 1 µM): 0.577 | relative viability (Bosutinib + Decitabine; first compound 0.01 µM): 0.467 | relative viability (Bosutinib + Decitabine; first compound 0.03162 µM): 0.507 | relative viability (Bosutinib + Decitabine; first compound 0.1 µM): 0.422 | relative viability (Bosutinib + Decitabine; first compound 1 µM): 0.411 | relative viability (Bosutinib + Crizotinib; first compound 0.01 µM): 0.845 | relative viability (Bosutinib + Crizotinib; first compound 0.03162 µM): 0.79 | relative viability (Bosutinib + Crizotinib; first compound 0.1 µM): 0.737 | relative viability (Bosutinib + Crizotinib; first compound 1 µM): 0.354

NCI-H1355
relative viability (Bosutinib + Pemetrexed; first compound 0.01 µM): 1.05 | relative viability (Bosutinib + Pemetrexed; first compound 0.03162 µM): 0.975 | relative viability (Bosutinib + Pemetrexed; first compound 0.1 µM): 1.06 | relative viability (Bosutinib + Pemetrexed; first compound 1 µM): 1.05 | relative viability (Bosutinib + OSI-027; first compound 0.01 µM): 0.412 | relative viability (Bosutinib + OSI-027; first compound 0.03162 µM): 0.466 | relative viability (Bosutinib + OSI-027; first compound 0.1 µM): 0.465 | relative viability (Bosutinib + OSI-027; first compound 1 µM): 0.381 | relative viability (Bosutinib + Bortezomib; first compound 0.01 µM): 1.27 | relative viability (Bosutinib + Bortezomib; first compound 0.03162 µM): 1.24 | relative viability (Bosutinib + Bortezomib; first compound 0.1 µM): 1.3 | relative viability (Bosutinib + Bortezomib; first compound 1 µM): 1.21 | relative viability (Bosutinib + Decitabine; first compound 0.01 µM): 0.304 | relative viability (Bosutinib + Decitabine; first compound 0.03162 µM): 0.366 | relative viability (Bosutinib + Decitabine; first compound 0.1 µM): 0.352 | relative viability (Bosutinib + Decitabine; first compound 1 µM): 0.368 | relative viability (Bosutinib + Crizotinib; first compound 0.01 µM): 1.07 | relative viability (Bosutinib + Crizotinib; first compound 0.03162 µM): 1.04 | relative viability (Bosutinib + Crizotinib; first compound 0.1 µM): 1.12 | relative viability (Bosutinib + Crizotinib; first compound 1 µM): 0.905

NCI-H1437
relative viability (Bosutinib + Pemetrexed; first compound 0.01 µM): 0.317 | relative viability (Bosutinib + Pemetrexed; first compound 0.03162 µM): 0.377 | relative viability (Bosutinib + Pemetrexed; first compound 0.1 µM): 0.311 | relative viability (Bosutinib + Pemetrexed; first compound 1 µM): 0.29 | relative viability (Bosutinib + OSI-027; first compound 0.01 µM): 0.887 | relative viability (Bosutinib + OSI-027; first compound 0.03162 µM): 0.878 | relative viability (Bosutinib + OSI-027; first compound 0.1 µM): 0.938 | relative viability (Bosutinib + OSI-027; first compound 1 µM): 0.886 | relative viability (Bosutinib + Bortezomib; first compound 0.01 µM): 0.599 | relative viability (Bosutinib + Bortezomib; first compound 0.03162 µM): 0.485 | relative viability (Bosutinib + Bortezomib; first compound 0.1 µM): 0.464 | relative viability (Bosutinib + Bortezomib; first compound 1 µM): 0.436 | relative viability (Bosutinib + Decitabine; first compound 0.01 µM): 0.536 | relative viability (Bosutinib + Decitabine; first compound 0.03162 µM): 0.567 | relative viability (Bosutinib + Decitabine; first compound 0.1 µM): 0.572 | relative viability (Bosutinib + Decitabine; first compound 1 µM): 0.482 | relative viability (Bosutinib + Crizotinib; first compound 0.01 µM): 0.858 | relative viability (Bosutinib + Crizotinib; first compound 0.03162 µM): 0.922 | relative viability (Bosutinib + Crizotinib; first compound 0.1 µM): 0.898 | relative viability (Bosutinib + Crizotinib; first compound 1 µM): 0.82

NCI-H1650
relative viability (Bosutinib + Pemetrexed; first compound 0.01 µM): 0.304 | relative viability (Bosutinib + Pemetrexed; first compound 0.03162 µM): 0.366 | relative viability (Bosutinib + Pemetrexed; first compound 0.1 µM): 0.404 | relative viability (Bosutinib + Pemetrexed; first compound 1 µM): 0.301 | relative viability (Bosutinib + OSI-027; first compound 0.01 µM): 0.734 | relative viability (Bosutinib + OSI-027; first compound 0.03162 µM): 0.6 | relative viability (Bosutinib + OSI-027; first compound 0.1 µM): 0.444 | relative viability (Bosutinib + OSI-027; first compound 1 µM): 0.41 | relative viability (Bosutinib + Bortezomib; first compound 0.01 µM): 0.215 | relative viability (Bosutinib + Bortezomib; first compound 0.03162 µM): 0.204 | relative viability (Bosutinib + Bortezomib; first compound 0.1 µM): 0.214 | relative viability (Bosutinib + Bortezomib; first compound 1 µM): 0.279 | relative viability (Bosutinib + Decitabine; first compound 0.01 µM): 0.457 | relative viability (Bosutinib + Decitabine; first compound 0.03162 µM): 0.378 | relative viability (Bosutinib + Decitabine; first compound 0.1 µM): 0.378 | relative viability (Bosutinib + Decitabine; first compound 1 µM): 0.511 | relative viability (Bosutinib + Crizotinib; first compound 0.01 µM): 0.921 | relative viability (Bosutinib + Crizotinib; first compound 0.03162 µM): 0.989 | relative viability (Bosutinib + Crizotinib; first compound 0.1 µM): 0.908 | relative viability (Bosutinib + Crizotinib; first compound 1 µM): 0.496
